Results: patent US20230086702A1, “SUBSTITUTED 2-AMINO-PYRAZOLYL-[1,2,4]TRIAZOLO[1,5A]PYRIDINE DERIVATIVES AND USE THEREOF” (The Johns Hopkins University, priority 2019, published 2023)

Key:
DLK = target: T1, DLK (Homo sapiens, UniProt Q12852); experiment: DLK biochemical assay (TR-FRET, MKK7 phosphorylation)
T1 construct: 10 nM DLK, catalytic domain, Carna Biosiences; purchased Carna Biosciences ('Carna Biosiences' [sic])
T1 sequence (Q12852 125-366 limits assumed): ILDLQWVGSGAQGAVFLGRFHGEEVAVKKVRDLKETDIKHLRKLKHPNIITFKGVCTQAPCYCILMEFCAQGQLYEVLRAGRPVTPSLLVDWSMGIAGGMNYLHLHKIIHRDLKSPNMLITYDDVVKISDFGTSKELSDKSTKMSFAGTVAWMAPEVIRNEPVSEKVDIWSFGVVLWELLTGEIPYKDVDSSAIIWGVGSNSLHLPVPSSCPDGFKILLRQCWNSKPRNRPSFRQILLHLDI
How it was run: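 DLK catalytic domain (10 nM) phosphorylates His-MKK7 (15 nM) at 60 μM ATP for 90 min at RT in pH 7.5 Hepes buffer (final concentrations). Phospho-T275/S277 is detected by TR-FRET (Eu anti-phospho donor, XL665 anti-His acceptor) after 16 h at 37° C (1536 format) or 4° C (384 format).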

LZK = target: T2, LZK (Homo sapiens, UniProt O43283); experiment: LZK biochemical assay (TR-FRET, MKK7 phosphorylation)
T2 construct: 10 nM LZK, catalytic domain, Carna Biosiences in assay buffer; purchased Carna Biosciences ('Carna Biosiences' [sic])
T2 sequence (O43283 168-409 limits assumed): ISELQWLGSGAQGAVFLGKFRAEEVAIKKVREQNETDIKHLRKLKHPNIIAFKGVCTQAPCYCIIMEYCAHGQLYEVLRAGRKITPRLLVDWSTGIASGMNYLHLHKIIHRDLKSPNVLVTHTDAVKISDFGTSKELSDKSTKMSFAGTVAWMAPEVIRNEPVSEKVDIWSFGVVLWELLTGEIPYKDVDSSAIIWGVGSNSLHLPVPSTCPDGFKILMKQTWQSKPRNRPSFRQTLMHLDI
How it was run: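 LZK catalytic domain (10 nM) phosphorylates His-MKK7 (15 nM) with 15 µM ATP, all final, for 90 min at RT in HEPES buffer pH 7.5 with MgCl2. Phospho-T275/S277 detected by TR-FRET (Eu anti-phospho donor, XL665 anti-His acceptor) after 16 h at 32 °C in EDTA stop buffer. Inhibition lowers the 665/Eu ratio.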

Structure (SMILES) | IC50 (DLK) | IC50 (LZK)
Nc1nc2c(-c3ccc(=O)n(CC(F)F)c3)cc(-c3cnn(C(c4ccc(C(F)(F)F)nc4)C4CCOCC4)c3)cn2n1 (single isomer, unassigned) [II-158, 5-[2-Amino-6-(1-{tetrahydro-2H-pyran-4-yl[6-(trifluoromethyl)pyridin-3-yl]methyl}-1H-pyrazol-4-yl)[1,2,4]triazolo[1,5-a]pyridin-8-yl]-1-(2,2-difluoroethyl)pyridin-2(1H)-one] | 0.4 nM | 1.2 nM
Nc1nc2c(-c3ccc(=O)n(CC(F)(F)F)c3)cc(-c3cnn(C(c4ccc(C(F)(F)F)nc4)C4CCOCC4)c3)cn2n1 (single isomer, unassigned) [II-161, 5-[2-Amino-6-(1-{tetrahydro-2H-pyran-4-yl[6-(trifluoromethyl)pyridin-3-yl]methyl}-1H-pyrazol-4-yl)[1,2,4]triazolo[1,5-a]pyridin-8-yl]-1-(2,2,2-trifluoroethyl)pyridin-2(1H)-one] | 8.5 nM | 12 nM
CCC(c1ccc(OC(F)(F)F)nc1)n1cc(-c2cc(-c3ccc(=O)n(CC(F)(F)F)c3)c3nc(N)nn3c2)cn1 (single isomer, unassigned) [II-164, 5-[2-Amino-6-(1-{1-[6-(trifluoromethoxy)pyridin-3-yl]propyl}-1H-pyrazol-4-yl)[1,2,4]triazolo[1,5-a]pyridin-8-yl]-1-(2,2,2-trifluoroethyl)pyridin-2(1H)-one] | 3.5 nM | 17 nM
CCC(c1ccc(OC(F)(F)F)nc1)n1cc(-c2cc(-c3ccc(=O)n(CC(F)(F)F)c3)c3nc(N)nn3c2)cn1 (single isomer, unassigned) [II-165, 5-[2-Amino-6-(1-{1-[6-(trifluoromethoxy)pyridin-3-yl]propyl}-1H-pyrazol-4-yl)[1,2,4]triazolo[1,5-a]pyridin-8-yl]-1-(2,2,2-trifluoroethyl)pyridin-2(1H)-one] | 26 nM | 57 nM
Nc1nc2c(-c3cn(CC(F)(F)F)c(=O)cn3)cc(-c3cnn(C(c4ccc(C(F)(F)F)nc4)C4CCOCC4)c3)cn2n1 (single isomer, unassigned) [II-167, 5-[2-Amino-6-(1-{tetrahydro-2H-pyran-4-yl[6-(trifluoromethyl)pyridin-3-yl]methyl}-1H-pyrazol-4-yl)[1,2,4]triazolo[1,5-a]pyridin-8-yl]-1-(2,2,2-trifluoroethyl)pyrazin-2(1H)-one] | 1.3 nM | 9.9 nM
Nc1nc2c(-c3cn(CC(F)(F)F)c(=O)cn3)cc(-c3cnn(C(c4ccc(C(F)(F)F)nc4)C4CCOCC4)c3)cn2n1 (single isomer, unassigned) [II-168, 5-[2-Amino-6-(1-{tetrahydro-2H-pyran-4-yl[6-(trifluoromethyl)pyridin-3-yl]methyl}-1H-pyrazol-4-yl)[1,2,4]triazolo[1,5-a]pyridin-8-yl]-1-(2,2,2-trifluoroethyl)pyrazin-2(1H)-one] | 17 nM | 77 nM
CCC(c1ccc(C(F)(F)F)nc1)n1cc(-c2cc(-c3ccn(C)c(=O)c3)c3nc(N)nn3c2)cn1 (single isomer, unassigned) [II-170, 4-[2-Amino-6-(1-{1-[6-(trifluoromethyl)pyridin-3-yl]propyl}-1H-pyrazol-4-yl)[1,2,4]triazolo[1,5-a]pyridin-8-yl]-1-methylpyridin-2(1H)-one] | 73 nM | 220 nM
CCC(c1ccc(C(F)(F)F)nc1)n1cc(-c2cc(-c3ccn(C)c(=O)c3)c3nc(N)nn3c2)cn1 (single isomer, unassigned) [II-171, 4-[2-Amino-6-(1-{1-[6-(trifluoromethyl)pyridin-3-yl]propyl}-1H-pyrazol-4-yl)[1,2,4]triazolo[1,5-a]pyridin-8-yl]-1-methylpyridin-2(1H)-one] | 9.3 nM | 41 nM
Nc1nc2c(-c3ccn(CC(F)F)c(=O)c3)cc(-c3cnn(C(c4ccc(C(F)(F)F)nc4)C4CCOCC4)c3)cn2n1 (single isomer, unassigned) [II-173, 4-[2-Amino-6-(1-{tetrahydro-2H-pyran-4-yl[6-(trifluoromethyl)pyridin-3-yl]methyl}-1H-pyrazol-4-yl)[1,2,4]triazolo[1,5-a]pyridin-8-yl]-1-(2,2-difluoroethyl)pyridin-2(1H)-one] | 11 nM | 25 nM
Nc1nc2c(-c3ccn(CC(F)F)c(=O)c3)cc(-c3cnn(C(c4ccc(C(F)(F)F)nc4)C4CCOCC4)c3)cn2n1 (single isomer, unassigned) [II-174, 4-[2-Amino-6-(1-{tetrahydro-2H-pyran-4-yl[6-(trifluoromethyl)pyridin-3-yl]methyl}-1H-pyrazol-4-yl)[1,2,4]triazolo[1,5-a]pyridin-8-yl]-1-(2,2-difluoroethyl)pyridin-2(1H)-one] | 1 nM | 4.3 nM
Nc1nc2c(-c3ccn(CC(F)(F)F)c(=O)c3)cc(-c3cnn(C(c4ccc(C(F)(F)F)nc4)C4CCOCC4)c3)cn2n1 (single isomer, unassigned) [II-176, 4-[2-Amino-6-(1-{tetrahydro-2H-pyran-4-yl[6-(trifluoromethyl)pyridin-3-yl]methyl}-1H-pyrazol-4-yl)[1,2,4]triazolo[1,5-a]pyridin-8-yl]-1-(2,2,2-trifluoroethyl)pyridin-2(1H)-one] | 1.6 nM | 5.6 nM
Nc1nc2c(-c3ccn(CC(F)(F)F)c(=O)c3)cc(-c3cnn(C(c4ccc(C(F)(F)F)nc4)C4CCOCC4)c3)cn2n1 (single isomer, unassigned) [II-177, 4-[2-Amino-6-(1-{tetrahydro-2H-pyran-4-yl[6-(trifluoromethyl)pyridin-3-yl]methyl}-1H-pyrazol-4-yl)[1,2,4]triazolo[1,5-a]pyridin-8-yl]-1-(2,2,2-trifluoroethyl)pyridin-2(1H)-one] | 10 nM | 33 nM
CCC(c1ccc(C(F)(F)F)nc1)n1cc(-c2cc(-c3ccc(=O)n(C(F)F)c3)n3nc(N)nc3c2)cn1 (single isomer, unassigned) [II-180, 5-[2-Amino-7-(1-{1-[6-(trifluoromethyl)pyridin-3-yl]propyl}-1H-pyrazol-4-yl)[1,2,4]triazolo[1,5-a]pyridin-5-yl]-1-(difluoromethyl)pyridin-2(1H)-one] | 34 nM | 79 nM
CCC(c1ccc(C(F)(F)F)nc1)n1cc(-c2cc(-c3ccc(=O)n(C(F)F)c3)n3nc(N)nc3c2)cn1 (single isomer, unassigned) [II-181, 5-[2-Amino-7-(1-{1-[6-(trifluoromethyl)pyridin-3-yl]propyl}-1H-pyrazol-4-yl)[1,2,4]triazolo[1,5-a]pyridin-5-yl]-1-(difluoromethyl)pyridin-2(1H)-one] | 2.7 nM | 5.4 nM
Nc1nc2cc(-c3cnn(C(c4ccc(C(F)(F)F)nc4)C4CCOCC4)c3)cc(-c3ccc(=O)n(C(F)F)c3)n2n1 (single isomer, unassigned) [II-183, 5-[2-Amino-7-(1-{tetrahydro-2H-pyran-4-yl[6-(trifluoromethyl)pyridin-3-yl]methyl}-1H-pyrazol-4-yl)[1,2,4]triazolo[1,5-a]pyridin-5-yl]-1-(difluoromethyl)pyridin-2(1H)-one] | 22 nM | 19 nM
